# From ChEMBL document CHEMBL2331515, “Design, synthesis, and pharmacological characterization of novel endomorphin-1 analogues as extremely potent μ-opioid agonists” (J Med Chem, 2013)
# Active and inactive are the calls of the source. The rule behind the calls is not given here.
# Tests used:
# Mus musculus [1] = test: Antinociceptive activity in Kunming mouse assessed as tail withdrawal latency at 2 mg/kg, iv after 15 to 20 mins by hot water tail-flick test relative to control; format: functional, organism-based; parameters: dose 2 mg/kg
# Mus musculus [2] = test: Antinociceptive activity in Kunming mouse assessed as tail withdrawal latency at 2 mg/kg, iv by hot water tail-flick test in presence of naloxone; format: functional, organism-based; parameters: dose 2 mg/kg
# Mu-type opioid receptor [3] = molecular target: T1, Mu-type opioid receptor (Homo sapiens, UniProt P35372); test: Agonist activity at FLAG-tagged mu-type opioid receptor (unknown origin) expressed in HEK293 cells assessed as stimulation of ERK1/2 phosphorylation at 1 uM after 2 mins by Western blotting analysis; format: cell-based
# T1 sequence (P35372 whole entry): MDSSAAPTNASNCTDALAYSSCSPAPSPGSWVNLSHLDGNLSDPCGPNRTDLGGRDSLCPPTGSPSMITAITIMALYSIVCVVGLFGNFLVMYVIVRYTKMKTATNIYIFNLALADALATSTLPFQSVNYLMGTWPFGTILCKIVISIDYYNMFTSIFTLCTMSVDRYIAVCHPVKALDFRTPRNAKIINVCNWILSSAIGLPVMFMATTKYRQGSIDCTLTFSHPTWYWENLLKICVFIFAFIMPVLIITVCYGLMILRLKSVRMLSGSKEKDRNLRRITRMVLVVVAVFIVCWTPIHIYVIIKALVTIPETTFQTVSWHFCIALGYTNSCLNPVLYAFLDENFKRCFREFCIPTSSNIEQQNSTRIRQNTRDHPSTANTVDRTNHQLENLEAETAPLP
# Mu-type opioid receptor [4] = molecular target: Mu-type opioid receptor (Cavia porcellus, UniProt P97266); test: Agonist activity at mu-type opioid receptor in guinea pig ileum assessed as inhibition of electrically evoked muscle contraction; format: tissue-based
# Mu-type opioid receptor (Cavia porcellus, UniProt P97266), sequence (P97266 whole entry): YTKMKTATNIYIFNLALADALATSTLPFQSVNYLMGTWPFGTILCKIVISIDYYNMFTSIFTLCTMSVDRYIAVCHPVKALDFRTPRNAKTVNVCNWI
# Mus musculus [5] = test: Antinociceptive activity in Kunming mouse assessed as tail withdrawal latency at 0.67 to 20 nmol/kg, icv by hot water tail-flick test; format: functional, organism-based; conditions: TDE = time-dependent effect
# Mu-type opioid receptor [6] = molecular target: T1, Mu-type opioid receptor; test: Agonist activity at FLAG-tagged mu-type opioid receptor (unknown origin) expressed in HEK293 cells assessed as inhibition of forskolin-stimulated cAMP accumulation after 30 mins by liquid scintillation counting analysis relative to DAMGO; format: functional, cell-based
# Homo sapiens = species on record: Homo sapiens; test: Selectivity ratio of Ki for Myc-tagged delta-type opioid receptor (unknown origin) to Ki for FLAG-tagged mu-type opioid receptor (unknown origin)
# Mus musculus [7] = test: Antinociceptive activity in Kunming mouse assessed as tail withdrawal latency at 2 mg/kg, iv by hot water tail-flick test in presence of naloxone methiodide; format: functional, organism-based; parameters: dose 2 mg/kg
# Mus musculus [8] = test: Antinociceptive activity in icv dosed Kunming mouse assessed as tail withdrawal latency by hot water tail-flick test; format: functional; conditions: for ED50: central
# Mu-type opioid receptor [9] = molecular target: T1, Mu-type opioid receptor; test: Displacement of [3H]DAMGO from FLAG-tagged mu-type opioid receptor (unknown origin) expressed in HEK293 cells after 60 mins by liquid scintillation counting analysis; format: cell-based
# [10] = molecular target: Kappa-type opioid receptor (Homo sapiens, UniProt P41145); test: Displacement of [3H]U69,593 from kappa-type opioid receptor (unknown origin) expressed in HEK293 cells after 60 mins by liquid scintillation counting analysis; format: cell-based
# Kappa-type opioid receptor, sequence (P41145 whole entry): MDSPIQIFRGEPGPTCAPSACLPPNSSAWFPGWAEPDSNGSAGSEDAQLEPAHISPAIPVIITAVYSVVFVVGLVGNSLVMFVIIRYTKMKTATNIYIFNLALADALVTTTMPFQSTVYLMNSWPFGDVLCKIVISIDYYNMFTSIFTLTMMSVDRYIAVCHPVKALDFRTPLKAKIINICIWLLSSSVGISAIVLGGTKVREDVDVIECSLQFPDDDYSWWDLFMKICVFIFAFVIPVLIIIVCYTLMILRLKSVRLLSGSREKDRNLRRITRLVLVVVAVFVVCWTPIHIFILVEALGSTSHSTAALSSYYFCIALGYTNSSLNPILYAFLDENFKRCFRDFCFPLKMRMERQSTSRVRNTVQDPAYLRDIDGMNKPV
# Mu-type opioid receptor [11] = molecular target: T1, Mu-type opioid receptor; test: Agonist activity at FLAG-tagged mu-type opioid receptor (unknown origin) expressed in HEK293 cells assessed as stimulation of ERK1/2 phosphorylation at 1 uM after 10 mins by Western blotting analysis; format: cell-based; conditions: TDE = time-dependent effect
# [12] = molecular target: Mu-type opioid receptor (Mus musculus) (UniProt P42866); test: Agonist activity at mu-type opioid receptor in Kunming mouse vas deferens assessed as inhibition of electrically evoked muscle contraction in presence of naltrindole
# Mu-type opioid receptor (Mus musculus), sequence (P42866 whole entry): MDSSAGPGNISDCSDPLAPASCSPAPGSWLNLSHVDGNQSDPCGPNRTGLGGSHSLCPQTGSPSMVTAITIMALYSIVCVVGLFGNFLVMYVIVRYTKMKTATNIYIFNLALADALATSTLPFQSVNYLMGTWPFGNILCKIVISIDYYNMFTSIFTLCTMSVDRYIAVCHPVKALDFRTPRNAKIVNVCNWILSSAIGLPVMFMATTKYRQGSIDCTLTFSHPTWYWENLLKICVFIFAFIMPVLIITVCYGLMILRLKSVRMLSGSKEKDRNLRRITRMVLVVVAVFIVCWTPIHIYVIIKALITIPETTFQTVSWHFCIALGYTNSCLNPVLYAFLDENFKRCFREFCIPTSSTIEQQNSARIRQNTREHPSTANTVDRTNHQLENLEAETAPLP
# [13] = molecular target: T2, Delta-type opioid receptor (Homo sapiens, UniProt P41143); test: Agonist activity at Myc-tagged delta-type opioid receptor (unknown origin) expressed in HEK293 cells assessed as inhibition of forskolin-stimulated cAMP accumulation after 30 mins by liquid scintillation counting analysis relative to DAMGO; format: functional, cell-based
# T2 sequence (P41143 whole entry): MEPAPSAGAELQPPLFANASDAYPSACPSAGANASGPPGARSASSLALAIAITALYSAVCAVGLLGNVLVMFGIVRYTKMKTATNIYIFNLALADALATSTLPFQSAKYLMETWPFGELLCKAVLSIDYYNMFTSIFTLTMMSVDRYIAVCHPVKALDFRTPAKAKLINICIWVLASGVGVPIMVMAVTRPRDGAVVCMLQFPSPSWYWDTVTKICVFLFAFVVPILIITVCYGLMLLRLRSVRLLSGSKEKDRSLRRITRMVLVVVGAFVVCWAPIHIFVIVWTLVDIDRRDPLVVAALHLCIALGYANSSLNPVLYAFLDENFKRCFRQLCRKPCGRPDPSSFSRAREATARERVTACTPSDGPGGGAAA
# [14] = Selectivity ratio of Ki for kappa-type opioid receptor (unknown origin) to Ki for FLAG-tagged mu-type opioid receptor (unknown origin); conditions: Homo sapiens
# Mu-type opioid receptor [15] = molecular target: T1, Mu-type opioid receptor; test: Agonist activity at FLAG-tagged mu-type opioid receptor (unknown origin) expressed in HEK293 cells assessed as inhibition of forskolin-stimulated cAMP accumulation after 30 mins by liquid scintillation counting analysis; format: functional, cell-based
# [16] = molecular target: T2, Delta-type opioid receptor; test: Displacement of [3H]DPDPE from Myc-tagged delta-type opioid receptor (unknown origin) expressed in HEK293 cells after 60 mins by liquid scintillation counting analysis; format: cell-based
# [17] = molecular target: T2, Delta-type opioid receptor; test: Agonist activity at Myc-tagged delta-type opioid receptor (unknown origin) expressed in HEK293 cells assessed as inhibition of forskolin-stimulated cAMP accumulation after 30 mins by liquid scintillation counting analysis; format: functional, cell-based
# Mu-type opioid receptor [18] = molecular target: Mu-type opioid receptor (Mus musculus, UniProt P42866); test: Agonist activity at mu-type opioid receptor in Kunming mouse vas deferens assessed as inhibition of electrically evoked muscle contraction
# Mu-type opioid receptor (Mus musculus, UniProt P42866), sequence (P42866 whole entry): as the sequence (P42866 whole entry) above
# Mus musculus [19] = test: Antinociceptive activity in icv dosed Kunming mouse assessed as tail withdrawal latency by hot water tail-flick test in presence of naloxone; format: functional, organism-based
# [20] = Half life in mouse brain homogenate by RP-HPLC analysis; format: ADME, tissue-based
Structure (SMILES),Activity (Mus musculus [1]),Activity (Mus musculus [2]),Activity (Mu-type opioid receptor [3]),IC50 (Mu-type opioid receptor [4]),Activity (Mus musculus [5]),Emax (Mu-type opioid receptor [6]),Ratio Ki (Homo sapiens),Activity (Mus musculus [7]),Activity (Mus musculus [8]),Ki (Mu-type opioid receptor [9]),Ki [10],inhibition [12],Emax [13],Ratio Ki [14],EC50 (Mu-type opioid receptor [15]),inhibition (Mu-type opioid receptor [15]),Ki [16],Activity [17],EC50 [17],IC50 (Mu-type opioid receptor [18]),other results
C=C(C(N)=O)[C@@H](NC(=O)[C@H](Cc1c[nH]c2ccccc12)NC(=O)[C@H]1CCN(C(=O)[C@@H](N)Cc2c(C)cc(O)cc2C)C1)c1ccco1,Active,inactive,Active,0.834 nM,tde,98.6%,2380,Active,Dose-dependent effect,0.0128 nM,180 nM,Active,72.2%,14100,0.000109 nM,Dose-dependent effect,30.4 nM,Dose-dependent effect,47.3 nM,0.962 nM,ED50 (Mus musculus [8]): 0.00095 µmol/kg; Activity (Mu-type opioid receptor [11]): tde; Activity (Mus musculus [19]): inactive; half-life [20]: > 10 h
C=C(C(N)=O)[C@@H](NC(=O)[C@H](Cc1c[nH]c2ccccc12)NC(=O)[C@@H]1CCN(C(=O)[C@@H](N)Cc2ccc(O)cc2)C1)c1ccccc1,,,,1.82 nM,,96.8%,9490,,,0.296 nM,,Active,,,0.0397 nM,Dose-dependent effect,2810 nM,Dose-dependent effect,,2.28 nM,
C=C(C(N)=O)[C@@H](NC(=O)[C@H](Cc1c[nH]c2ccccc12)NC(=O)[C@@H]1CCN(C(=O)[C@@H](N)Cc2c(C)cc(O)cc2C)C1)c1ccccc1,Active,inactive,Active,0.226 nM,tde,98.9%,2770,Active,Dose-dependent effect,0.00986 nM,174 nM,Active,72.1%,17600,,Dose-dependent effect,27.3 nM,Dose-dependent effect,47.9 nM,0.406 nM,ED50 (Mus musculus [8]): 0.000822 µmol/kg; Activity (Mu-type opioid receptor [11]): tde; Activity (Mus musculus [19]): inactive; half-life [20]: > 10 h
C=C(C(N)=O)[C@@H](NC(=O)[C@H](Cc1c[nH]c2ccccc12)NC(=O)[C@H]1CCN(C(=O)[C@@H](N)Cc2ccc(O)cc2)C1)c1ccco1,,,,8.12 nM,,94.9%,9170,,,0.758 nM,,Active,,,0.0933 nM,Dose-dependent effect,6950 nM,Dose-dependent effect,,4.9 nM,
C=C(C(N)=O)[C@@H](NC(=O)[C@H](Cc1c[nH]c2ccccc12)NC(=O)[C@@H]1CCN(C(=O)[C@@H](N)Cc2ccc(O)cc2)C1)c1ccco1,,,,1.67 nM,,96.2%,16800,,,0.165 nM,,Active,,,0.00853 nM,Dose-dependent effect,2780 nM,Dose-dependent effect,,2.91 nM,
C=C(C(=O)O)[C@@H](NC(=O)[C@H](Cc1c[nH]c2ccccc12)NC(=O)[C@@H]1CCCN1C(=O)[C@@H](N)Cc1c(C)cc(O)cc1C)c1ccccc1,,,,0.467 nM,,97.2%,795,,,0.0322 nM,192 nM,Active,77.5%,5960,0.00013 nM,Dose-dependent effect,25.6 nM,Dose-dependent effect,51.6 nM,0.556 nM,
